Test results from article PMC4626104, “Inhibition on Proteasome β1 Subunit Might Contribute to the Anti-Cancer Effects of Fangchinoline in Human Prostate Cancer Cells” (PLoS ONE, 2015).
Like-named read-outs stand apart in the source and are kept apart here.

What was measured:
[1] = biological target: T1, recombinant human proteasome β1 subunit (Homo sapiens, UniProt P28072); test: Surface plasmon resonance (Biacore) binding assay; conditions: Biacore, 25°C, 1:1 Langmuir model
T1 construct: His-Tag; made in house; host or cells: Escherichia coli
T1 sequence (P28072 1-239): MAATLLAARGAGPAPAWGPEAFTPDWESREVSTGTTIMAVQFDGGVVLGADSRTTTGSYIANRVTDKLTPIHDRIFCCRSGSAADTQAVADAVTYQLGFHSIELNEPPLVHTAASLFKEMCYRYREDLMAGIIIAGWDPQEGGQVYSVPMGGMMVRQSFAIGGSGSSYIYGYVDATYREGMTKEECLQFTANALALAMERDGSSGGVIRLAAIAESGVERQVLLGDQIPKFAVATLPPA
Description: The recombinant human proteasome β1 subunit, product of PSMB6 gene, was expressed as His-Tag proteins using Escherichia coli, and then purified by affinity chromatography as reported in our previous study. The binding affinities of fangchinoline or tetrandrine to recombinant proteasome catalytic β1 subunit, were assayed in vitro using an Biacore 3000 instrument (Biacore AB, Rapsgatan 7, S-754 50 Uppsala, Sweden) as reported before. Briefly, recombinant proteasome β1 subunit protein was immobilized on a CM5 sensor chip as ligand in 11624.5 RU with N-ethyl-N’-(3-dimethylaminopropyl) carbodiimide and N-hydroxysuccinimide according to the standard primary amine-coupling procedures, and HBS-EP (10 mM HEPES, 150 mM NaCl, 3 mM EDTA, 0.005% (v/v) surfactant P20, pH 7.4) was used as the running buffer. Equilibration of the baseline was performed by a continuous flow of HBS-EP through the chip surface for 1 to 2 h. Biacore data were collected at 25°C with HBS-EP as the running buffer at a constant flow of 20 μL/min. Fangchinoline or tetradrine was serially diluted into the running buffer to 0, 2.4, 3.43, 4.90, 7.0, 10 and 20 μM. The samples were injected into the channels at a flow rate of 20 μL/min, followed by washing with the running buffer. The binding responses were recorded continuously in response units (RU) at a frequency of 1Hz as sensorgrams and presented as a function of time. The association (k a) and dissociation (k d) rate constants, the equilibrium dissociation constant ( KD=kd/ka ) were determined by analysis of the sensorgram-curves obtained at different concentrations of the compound by use of BIA evaluation software version 3.1 (Biacore) and the 1:1 Langmuir binding fitting model.

[2] = tested on: PC-3 cells; test: MTT assay of cell proliferation, PC-3 cells; format: cell-based; conditions: Homo sapiens, read-out: IC50 inhibiting cell proliferation
Description: (§1) The inhibitive effects of fangchinoline on proliferation of PC-3 cells or LnCap cells was observed by checking cell viability of cells using MTT assay as described before. Briefly, cells were seeded in 96-well plates at a density of 5×10^4 cells/mL for PC-3 cell and 4×10^4 cells/mL for LnCap cells. After overnight culture, the media were changed into fresh media containing various concentrations of fangchinoline or 0.1% DMSO (solvent control) for 24, 48 h or 72 h. Cell viability was evaluated by measuring the mitochondrial-dependent conversion of the yellow tetrazolium salt MTT to purple formazan crystals by metabolic active cells. The optical density (proportional to the number of live cells) was assessed with a Microplate Reader Bio-Rad 550 at 570 nm. IC50 value (half-maximal inhibitory concentration) was calculated by the Logit method.

[3] = tested on: ubiquitinated proteins, IκB-α, Bax, p27 in PC-3 cells; test: Western blotting of ubiquitinated proteins and proteasome substrates in PC-3 cells; format: cell-based, human
Description: Western blotting assay was conducted as described before. Briefly, an aliquot of protein (100 μg) sample was loaded onto a 12% SDS gel, separated electrophoretically, and transferred to a Nitrocellulose membrane (Bio-Rad). After the membrane was incubated with 10 mM TBS with […] and 5% dehydrated skim milk to block nonspecific protein binding, the membrane was incubated with primary antibodies overnight at 4°C. The primary antibodies (all from Cell Signaling Technology) used were rabbit polyclonal antibody against human IκB-α (#4812, 1:400), Bax (#2772, 1:400), proteasome β1 subunit (PSMB6) (#13267, 1:500), β-actin (#4967, 1:400) and mouse monoclonal antibody against human p27 Kip1 (#3688, 1:400) or ubiquitin (#3936, 1:1000). After TBS washes, blots were then incubated with secondary antibody for 2 h at room temperature at a 1:1000 dilution and then visualized using chemiluminescence (Pierce Biotechnology, Rockford, IL, USA). The secondary antibodies used were HRP-linked goat anti-rabbit IgG (#7074) and HRP-linked horse anti-mouse IgG (#7076), both from Cell Signaling Technology.

[4] = tested on: PC-3 cells with over-expression of proteasome β1 subunit; test: MTT assay in PC-3 cells over-expressing proteasome β1 subunit (PSMB6 plasmid); format: cell-based, human; conditions: 24 h, 48 h or 72 h treatment
Description: as §1
Cells with over-expression of proteasome β1 subunit were obtained by transfection with pcDNA3.1 plasmid encoding full-length human PSMB6 cDNA as described before. For plasmid transfection, 5 × 10^5 cells were seeded into each well of a six-well plate until the cells reached approximately 80% confluence after cultured for 24 h. […]

COc1ccc2cc1Oc1ccc(cc1)C[C@H]1c3cc(c(OC)cc3CCN1C)Oc1c(O)c(OC)cc3c1[C@H](C2)N(C)CC3 [fangchinoline]
Dissociation (k d) [1]: 0.0353 S^-1
Kd ([1]; read-out: Equilibrium dissociation (K D)): 4.68 µM
kon ([1]; pH 7.4, read-out: Association (k a)): 7550 M⁻¹ s⁻¹
IC50 ([2]; 24 h): 27.5 ± 3.35 µM
IC50 ([2]; 48 h): 13.1 ± 1.58 µM
IC50 ([2]; 72 h): 7.25 ± 0.312 µM
Ubiquitinated IκBα (Ub-IκBα), Ub-p27 and Ub-Bax levels [3]: dose-dependently and time-dependently induced increase
Treatment time after which accumulation of ubiquitinated proteins was observed ([3]; 27 μM): 1 h
Lowest dose at which accumulation of ubiquitinated proteins was observed ([3]; 24 h treatment): 8 µM
Sensitivity of cells with over-expression of proteasome β1 subunit to cytotoxicity vs wild type and negative control [4]: more sensitive
